Measurements published in patent EP4745124A1, “NAPHTHALIMIDE-BASED CORONAVIRUS PAPAIN-LIKE PROTEASE INHIBITOR” (Guangzhou National Laboratory, priority 2023, dated 2025).
Where two headings read alike, the source gives them in different places.

Columns and labels:
SARS-CoV-2 WT = assay: Anti-viral activity evaluation in SARS-CoV-2 infected Vero-E6 cell model (qRT-PCR viral copy numbers); assay type: cell-based; settings: Severe acute respiratory syndrome coronavirus 2, Vero C1008, 48 h, read-out: SARS-Cov-2 WT EC50 (µM)
SARS-Cov-2 XBB.1 = assay: microbe, parasite or virus in culture; assay type: cell-based; settings: Severe acute respiratory syndrome coronavirus 2, Vero C1008, 48 h, read-out: SARS-Cov-2 XBB.1 EC50 (µM)
SARS-Cov-2 Omicron BA.5 = assay: microbe, parasite or virus in culture; assay type: cell-based; settings: Severe acute respiratory syndrome coronavirus 2, Vero C1008, 48 h, read-out: SARS-Cov-2 Omicron BA.5 EC50 (µM)
[1] = Routine pharmacokinetic (PK) test in rats, oral gavage; assay type: in vivo; settings: rat, 5 mg/kg, plasma
Description: Solvent formula: 10% DMSO, 5% ethanol, 5% Cremophor EL and 80% deionized water. […] Measure 1.316 mL of DMSO, vortex for 1 minute, and sonicate for 10 minutes to obtain a 5 mg/mL clear DMSO stock solution.
Take 1 mL of 5 mg/mL DMSO stock solution, add 0.5 mL of ethanol, vortex for 1 minute, add 0.5 mL of Cremophor EL, vortex for 1 minute, and finally add 8 mL of deionized water, vortex for 1 minute to obtain a clear administration formulation with a concentration of 0.5 mg/mL. Prepare it immediately before use and store it at room temperature after preparation.
Oral gavage administration, with the route of administration consistent with the intended clinical route of administration.
Oral sampling: There were a total of 8 collection time points, at 0.25, 0.5, 1, 2, 4, 6, 8 and 24 hours after administration.
Plasma: After euthanasia of the animals, blood was drawn by puncture. The samples were placed in tubes containing K2-EDTA and stored on ice until centrifugation. Within 1 hour after blood collection, the samples were centrifuged at 6800 g for 6 minutes at 2-8°C to obtain plasma samples, which were then frozen and stored at approximately -80°C.
Analyze the compound. While analyzing the sample, utilize quality control samples to evaluate the intra-day accuracy of the analytical batch.
When calculating pharmacokinetic parameters, the BLQ concentration data before the time to reach peak concentration (Tmax) in the oral administration group are calculated as "0", and BLQ concentration data after Tmax are excluded from all calculations.
The non-compartmental model statistical moment method using Phoenix WinNonlin® 7.0 software was employed to calculate the following main pharmacokinetic parameters: Tmax, Cmax, AUC(0-t), T1/2, etc.
1) Take 30 µL of mixed standard curve samples, quality control samples, blank samples, zero concentration samples, and test samples. 2) For standard curve samples, quality control samples, zero concentration samples and test samples, add 300 µL of internal standard working solution (containing 100 ng/mL IS). For blank samples, ULOQ without IS samples (if necessary), add the same volume of acetonitrile. 3) Vortex mix for 1 minute 4) Centrifuge at 4°C for 7 minutes (18,000g) 5) Take 200 µL of the supernatant to the corresponding wells of a 96-well injection plate. 6) Inject 4µL of sample for LC-MS/MS analysis. Table 4 Pharmacokinetic data of compounds after oral administration in vivo

[2] = clearance proportion
[3] = clearance proportion; remark: listed apart in the source
SARS-CoV-2 PL^Pro = biological target: T1, SARS-CoV-2 PL^Pro (Severe acute respiratory syndrome coronavirus 2, UniProt P0DTD1); assay: biochemical
T1 construct: SARS-CoV-2 PL^Pro catalytic domain (746-1060); made in house

[4] = SARS-CoV-2 PLPro catalytic domain (746-1060), 10 minutes pre-incubation, read-out: PLpro IC50

Row | Structure (SMILES) | EC50 (SARS-CoV-2 WT) | EC50 (SARS-Cov-2 XBB.1) | EC50 (SARS-Cov-2 Omicron BA.5) | IC50 (SARS-CoV-2 PL^Pro) | also measured
1 | Cc1ccc(N2CCN(C)CC2)cc1C(=O)NC1(c2ccc3c4c(cccc24)C(=O)N3C)CC1 [Compound P1, 2-Methyl-N-(1-(1-methyl-2-oxo-1,2-dihydrobenzo[cd]indol-6-yl)cyclopropyl)-5-(4-methylpiperazin-1-yl)benzamide] | 0.1 to 1 µM | 0.1 to 1 µM | 0.1 to 1 µM |  | AUC(0-t) [1]: 3390 ng·h/mL; Cmax [1]: 393 ng/mL; Tmax [1]: 3 h; half-life [1]: 3 h; Rat Eh (%) [2]: 37.3%; Human Eh (%) [3]: 77%
2 | Cc1ccc(N2CC3CC(C2)N3)cc1C(=O)NC1(c2ccc3c4c(cccc24)C(=O)N3C)CC1 [Compound P5, 5-(3,6-diazabicyclo[3.1.1]heptan-3-yl)-2-methyl-N-(1-(1-methyl-2-oxo-1,2-dihydrobenzo[cd]indol-6-yl)cyclopropyl)be nzamide] | < 0.04 µM | 0.04 to 0.1 µM | 0.1 to 1 µM | < 40 nM | 
3 | Cc1ccc(C2=CCN(C)CC2)cc1C(=O)NC1(c2ccc3c4c(cccc24)C(=O)N3C)CC1 [Compound P7, 2-Methyl-5-(1-methyl-1,2,3,6-tetrahydropiperidin-4-yl)-N-(1-(1-methyl-2-oxo-1,2-dihydrobenzo[cd]indol-6-yl)cyclopropyl)benzamide] | 0.1 to 1 µM | 0.1 to 1 µM | 0.1 to 1 µM | < 40 nM | 
4 | Cc1ccc(N2CC3CC(C2)N3C)cc1C(=O)NC1(c2ccc3c4c(cccc24)C(=O)N3C)CC1 [Compound P11, 2-methyl-N-(1-(1-methyl-2-oxo-1,2-dihydrobenzo[cd]indol-6-yl)cyclopropyl)-5-(6-methyl-3,6-diazabicyclo[3.1.1]heptan-3-yl)benzamide] | 0.1 to 1 µM | 0.04 to 0.1 µM | 0.1 to 1 µM | < 40 nM | 
5 | CC(C)N1C(=O)c2cccc3c(C4(NC(=O)c5cccc(N6CC7CC(C6)N7)c5)CC4)ccc1c23 [Compound P16, 5-(3,6-diazabicyclo[3.1.1]heptan-3-yl)-N-(1-(1-isopropyl-2-oxo-1,2-dihydrobenzo[cd]indol-6-yl)cyclopropyl)benzamide] | 0.1 to 1 µM | 0.04 to 0.1 µM | 0.1 to 1 µM |  | IC50 (SARS-CoV-2 PL^Pro; read-out: PLpro IC50): < 40 nM
6 | Cc1ccc(N2CC(N3CCC(C)(O)CC3)C2)cc1C(=O)NC1(c2ccc3c4c(cccc24)C(=O)N3C)CC1 [Compound P17, 5-(3-(4-Hydroxy-4-methylpiperidin-1-yl)azetidin-1-yl)-2-methyl-N-(1-(1-methyl-2-oxo-1,2-dihydrobenzo[cd]indol-6-yl)cyclopropyl)benzamide] | < 0.04 µM | 0.04 to 0.1 µM | 0.1 to 1 µM |  | IC50 (SARS-CoV-2 PL^Pro; [4]): < 40 nM
7 | Cc1ccc(N2CCN(CCO)CC2)cc1C(=O)NC1(c2ccc3c4c(cccc24)C(=O)N3C)CC1 [Compound P53, 5-(4-(2-Hydroxyethyl)piperazin-1-yl)-2-methyl-N-(1-(1-methyl-2-oxo-1,2-dihydrobenzo[cd]indol-6-yl)cyclopropyl)ben zamide] |  |  |  |  | IC50 (SARS-CoV-2 PL^Pro; [4]): 40 to 100 nM
8 | Cc1ccc(N2CC(N3CC(F)C3)C2)cc1C(=O)NC1(c2ccc3c4c(cccc24)C(=O)N3C)CC1 [Compound P54, 5-(3-Fluoro-[1,3'-diazetidinyl]-1'-yl)-2-methyl-N-(1-(1-methyl-2-oxo-1,2-dihydrobenzo[cd]indol-6-yl)cyclopropyl)ben zamide] |  |  |  |  | IC50 (SARS-CoV-2 PL^Pro; read-out: PLpro IC50): 40 to 100 nM
